Where “and” joins values, the source holds several entries; their conditions need not be identical. Equal values may be shown once. Toxic doses and inconclusive results are not listed.
Tested on: L1210 leukemia ip in BDF1 mice, survival T/C
Experiment: NCI In Vivo Anticancer Drug Screen. Data for tumor model L1210 Leukemia (intraperitoneal) in B6D2F1 (BDF1) mice
Conditions: endpoint: mean survival time, higher = longer survival
Summary of the method: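 Tumor was transplanted into mice, which were then dosed with test compound or vehicle alone. Survival was recorded for each group, and the treated figure was expressed relative to the control figure.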

[1] = dose: 50.0 mg/kg/injection, schedule: Q01DX009 (ip), vehicle: saline with Tween-80
[2] = dose: 100.0 mg/kg/injection, schedule: Q04DX003 (ip), vehicle: saline with Tween-80
[3] = dose: 100.0 mg/kg/injection, schedule: Q04DX003 (ip), vehicle: saline
[4] = dose: 200.0 mg/kg/injection, schedule: Q04DX003 (ip), vehicle: saline
[5] = dose: 400.0 mg/kg/injection, schedule: Q04DX003 (ip), vehicle: saline
[6] = dose: 50.0 mg/kg/injection, schedule: Q01DX001 (ip), vehicle: carboxymethylcellulose (CMC)
[7] = dose: 88.0 mg/kg/injection, schedule: Q01DX001 (ip), vehicle: carboxymethylcellulose (CMC)
[8] = dose: 100.0 mg/kg/injection, schedule: Q01DX001 (ip), vehicle: carboxymethylcellulose (CMC)
[9] = dose: 300.0 mg/kg/injection, schedule: Q01DX001 (ip), vehicle: carboxymethylcellulose (CMC)
[10] = dose: 400.0 mg/kg/injection, schedule: Q01DX001 (ip), vehicle: carboxymethylcellulose (CMC)
[11] = dose: 100.0 mg/kg/injection, schedule: Q01DX009 (ip), vehicle: saline with Tween-80
[12] = dose: 200.0 mg/kg/injection, schedule: Q01DX009 (ip), vehicle: saline with Tween-80
[13] = dose: 400.0 mg/kg/injection, schedule: Q01DX009 (ip), vehicle: saline with Tween-80
[14] = dose: 100.0 mg/kg/injection, schedule: Q01DX009 (ip), vehicle: Klucel (hydroxypropylcellulose) (HPC)
[15] = dose: 200.0 mg/kg/injection, schedule: Q01DX009 (ip), vehicle: Klucel (hydroxypropylcellulose) (HPC)
[16] = dose: 200.0 mg/kg/injection, schedule: Q04DX003 (ip), vehicle: saline with Tween-80
[17] = dose: 400.0 mg/kg/injection, schedule: Q04DX003 (ip), vehicle: saline with Tween-80

## Clc1ccc(C(c2cccs2)N2CCNCC2)cc1 (stereo not drawn)
dose: 25.0 mg/kg/injection, schedule: Q01DX009 (ip), vehicle: saline with Tween-80
  T/C: 96 % of control
[1]
  T/C: 90 % of control
[2]
  T/C: 98 % of control

## CC1CCCCN1Cc1ccccc1CC(=O)c1ccccc1 (stereo not drawn)
dose: 100.0 mg/kg/injection, schedule: Q04DX002 (ip), vehicle: Klucel (hydroxypropylcellulose) (HPC)
  T/C: 93 % of control
dose: 200.0 mg/kg/injection, schedule: Q04DX002 (ip), vehicle: Klucel (hydroxypropylcellulose) (HPC)
  T/C: 107 % of control

## O=C(O)CCC(=O)Nc1cccc(Oc2ccc([N+](=O)[O-])cc2[N+](=O)[O-])c1
[3]
  T/C: 106 % of control
[4]
  T/C: 98 % of control
[5]
  T/C: 97 % of control

## CCCCCCOB(OCCCCCC)OCCCCCC
[6]
  T/C: 107 % of control
[7]
  T/C: 97 % of control and 98 % of control
[8]
  T/C: 102 % of control
dose: 133.0 mg/kg/injection, schedule: Q01DX001 (ip), vehicle: carboxymethylcellulose (CMC)
  T/C: 96 % of control and 103 % of control
[9]
  T/C: 93 % of control and 94 % of control
[10]
  T/C: 105 % of control

## NC(=O)SCC(=O)Nc1ccc2ncccc2c1
[6]
  T/C: 97 % of control
[7]
  T/C: 95 % of control and 112 % of control
[8]
  T/C: 94 % of control
dose: 100.0 mg/kg/injection, schedule: Q01DX009 (ip), vehicle: saline sonified
  T/C: 98 % of control
[3]
  T/C: 93 % of control
dose: 134.0 mg/kg/injection, schedule: Q01DX001 (ip), vehicle: carboxymethylcellulose (CMC)
  T/C: 95 % of control and 105 % of control
dose: 200.0 mg/kg/injection, schedule: Q01DX009 (ip), vehicle: saline sonified
  T/C: 90 % of control
[4]
  T/C: 109 % of control
[9]
  T/C: 100 % of control and 87 % of control
[10]
  T/C: 100 % of control
dose: 400.0 mg/kg/injection, schedule: Q01DX009 (ip), vehicle: saline sonified
  T/C: 101 % of control
[5]
  T/C: 96 % of control

## COc1ccc(OC)c(/C=N/NC(=O)CCCCCCCCC(=O)N/N=C/c2cc(OC)ccc2OC)c1
dose: 100.0 mg/kg/injection, schedule: Q01DX001 (ip), vehicle: saline with Tween-80
  T/C: 90 % of control
[11]
  T/C: 101 % of control and 106 % of control
dose: 100.0 mg/kg/injection, schedule: Q04DX002 (ip), vehicle: saline with Tween-80
  T/C: 94 % of control and 108 % of control
[3]
  T/C: 92 % of control
dose: 200.0 mg/kg/injection, schedule: Q01DX001 (ip), vehicle: saline with Tween-80
  T/C: 92 % of control
[12]
  T/C: 97 % of control and 90 % of control
dose: 200.0 mg/kg/injection, schedule: Q04DX002 (ip), vehicle: saline with Tween-80
  T/C: 95 % of control and 90 % of control
[4]
  T/C: 92 % of control
dose: 400.0 mg/kg/injection, schedule: Q01DX001 (ip), vehicle: saline with Tween-80
  T/C: 87 % of control
[13]
  T/C: 94 % of control
dose: 400.0 mg/kg/injection, schedule: Q04DX002 (ip), vehicle: saline with Tween-80
  T/C: 86 % of control
[5]
  T/C: 87 % of control

## OCCOc1ccc(Cl)cc1
[11]
  T/C: 98 % of control
[12]
  T/C: 110 % of control
[13]
  T/C: 102 % of control

## CCC1(C)N=C(N)Nc2nc3ccccc3n21 (stereo not drawn)
dose: 100.0 mg/kg/injection, schedule: Q01DX001 (ip), vehicle: saline
  T/C: 96 % of control
dose: 200.0 mg/kg/injection, schedule: Q01DX001 (ip), vehicle: saline
  T/C: 94 % of control

## C#CCOC(=O)C(Cl)(Cl)Cl
dose: 100.0 mg/kg/injection, schedule: Q04DX002 (ip), vehicle: other
  T/C: 107 % of control
dose: 200.0 mg/kg/injection, schedule: Q04DX002 (ip), vehicle: other
  T/C: 96 % of control

## NNc1nc(Cl)nc(C(Cl)(Cl)Cl)c1Cl (tested in a mixture with another compound)
dose: 50.0 mg/kg/injection, schedule: Q01DX009 (ip), vehicle: Klucel (hydroxypropylcellulose) (HPC)
  T/C: 87 % of control
[14]
  T/C: 87 % of control
[15]
  T/C: 89 % of control

## CCN(C)CCN(C)CC
dose: 100.0 mg/kg/injection, schedule: Q01DX009 (ip), vehicle: saline
  T/C: 102 % of control
[3]
  T/C: 97 % of control
dose: 200.0 mg/kg/injection, schedule: Q01DX009 (ip), vehicle: saline
  T/C: 104 % of control
[4]
  T/C: 99 % of control
dose: 400.0 mg/kg/injection, schedule: Q01DX009 (ip), vehicle: saline
  T/C: 106 % of control
[5]
  T/C: 99 % of control

## O=NN(CCCl)C(=O)Nc1ccc(Cn2cnc3c(=O)[nH]cnc32)cc1
dose: 5.0 mg/kg/injection, schedule: Q01DX009 (ip), vehicle: other
  T/C: 150 % of control
dose: 7.0 mg/kg/injection, schedule: Q01DX009 (ip), vehicle: other
  T/C: 155 % of control
dose: 14.0 mg/kg/injection, schedule: Q01DX009 (ip), vehicle: other
  T/C: 162 % of control
dose: 18.0 mg/kg/injection, schedule: Q01DX001 (ip), vehicle: other
  T/C: 161 % of control
dose: 28.0 mg/kg/injection, schedule: Q01DX009 (ip), vehicle: other
  T/C: 88 % of control
dose: 31.0 mg/kg/injection, schedule: Q01DX001 (ip), vehicle: other
  T/C: 155 % of control
dose: 36.0 mg/kg/injection, schedule: Q01DX001 (ip), vehicle: other
  T/C: 185 % of control
dose: 45.0 mg/kg/injection, schedule: Q01DX001 (ip), vehicle: other
  T/C: 196 % of control
dose: 46.0 mg/kg/injection, schedule: Q01DX001 (ip), vehicle: other
  T/C: 169 % of control
dose: 62.0 mg/kg/injection, schedule: Q01DX001 (ip), vehicle: other
  T/C: 169 % of control
dose: 63.0 mg/kg/injection, schedule: Q01DX001 (ip), vehicle: other
  T/C: 164 % of control
dose: 125.0 mg/kg/injection, schedule: Q01DX001 (ip), vehicle: other
  T/C: 101 % of control

## CC[CH2][Pb]([CH2]CC)([CH2]CC)[O]C(=O)C(Cl)(Cl)Cl
dose: 3.12 mg/kg/injection, schedule: Q01DX009 (ip), vehicle: Klucel (hydroxypropylcellulose) (HPC)
  T/C: 108 % of control
dose: 3.12 mg/kg/injection, schedule: Q04DX002 (ip), vehicle: Klucel (hydroxypropylcellulose) (HPC)
  T/C: 105 % of control
dose: 6.25 mg/kg/injection, schedule: Q01DX009 (ip), vehicle: Klucel (hydroxypropylcellulose) (HPC)
  T/C: 93 % of control
dose: 6.25 mg/kg/injection, schedule: Q04DX002 (ip), vehicle: Klucel (hydroxypropylcellulose) (HPC)
  T/C: 93 % of control
dose: 12.5 mg/kg/injection, schedule: Q01DX009 (ip), vehicle: Klucel (hydroxypropylcellulose) (HPC)
  T/C: 101 % of control
dose: 12.5 mg/kg/injection, schedule: Q04DX002 (ip), vehicle: Klucel (hydroxypropylcellulose) (HPC)
  T/C: 97 % of control and 99 % of control

## CC12CCC(O)C(CC1)C2 (stereo not drawn)
[2]
  T/C: 107 % of control
[16]
  T/C: 88 % of control
[17]
  T/C: 95 % of control

## CC1(Br)Cc2ccccc2C1=O (stereo not drawn)
[2]
  T/C: 107 % of control
[16]
  T/C: 94 % of control
[17]
  T/C: 103 % of control

## N/N=C1\CC(=O)NC(=O)N1
dose: 75.0 mg/kg/injection, schedule: Q01DX001 (ip), vehicle: saline
  T/C: 90 % of control
dose: 150.0 mg/kg/injection, schedule: Q01DX001 (ip), vehicle: saline
  T/C: 96 % of control

## COC(=O)c1ncccc1C(=O)O
[1]
  T/C: 96 % of control
[11]
  T/C: 93 % of control

## Cc1cc(C)c(C)c(Br)c1C
[14]
  T/C: 92 % of control
dose: 100.0 mg/kg/injection, schedule: Q04DX003 (ip), vehicle: Klucel (hydroxypropylcellulose) (HPC)
  T/C: 104 % of control
[15]
  T/C: 92 % of control
dose: 200.0 mg/kg/injection, schedule: Q04DX003 (ip), vehicle: Klucel (hydroxypropylcellulose) (HPC)
  T/C: 112 % of control
dose: 400.0 mg/kg/injection, schedule: Q01DX009 (ip), vehicle: Klucel (hydroxypropylcellulose) (HPC)
  T/C: 86 % of control
dose: 400.0 mg/kg/injection, schedule: Q04DX003 (ip), vehicle: Klucel (hydroxypropylcellulose) (HPC)
  T/C: 101 % of control

## COc1ccc2nc3cc(Cl)ccc3c(Nc3ccc(O)c(CN4CCN(C)CC4)c3)c2c1
dose: 75.0 mg/kg/injection, schedule: Q01DX001 (ip), vehicle: other
  T/C: 96 % of control
dose: 75.0 mg/kg/injection, schedule: Q04DX003 (ip), vehicle: other
  T/C: 94 % of control
dose: 150.0 mg/kg/injection, schedule: Q01DX001 (ip), vehicle: other
  T/C: 100 % of control
dose: 150.0 mg/kg/injection, schedule: Q04DX003 (ip), vehicle: other
  T/C: 97 % of control
dose: 300.0 mg/kg/injection, schedule: Q01DX001 (ip), vehicle: other
  T/C: 97 % of control

From PubChem BioAssay AID248 (DTP/NCI, 2004)
